{
  "source": "patent US11541059B2",
  "about": "“Heterocyclic compounds and uses thereof” (Infinity Pharmaceuticals, Inc., priority 2014, dated 2023)",
  "key": {"GL261-Luc tumors": {"system": "GL261-Luc tumors", "assay": "GL261-Luc murine glioblastoma subcutaneous model", "format": "in vivo, mouse", "conditions": "15 mg/kg QD, PO, FIG. 47A"}, "[1]": {"system": "TAMs / CD206 in LLC tumor brei", "assay": "Flow cytometry of tumor-associated myeloid cells, LLC tumor brei", "format": "in vivo, mouse", "procedure": "Flow cytometry was performed to obtain a more extensive cellular subset analysis. In particular, the study examined T cell vs. Myeloid cells, Myeloid cell subsets, Regulatory vs. effector T cells, and Tumor markers vs. WBC (e.g., PD-L1 expression on tumor).\nDifferent populations of tumor-associated myeloid cells can be identified by flow cytometry, e.g., monocytic immature myeloid cells (iMC),Granulocytic iMCs/Neutrophils, Tumor Associated Macrophages (TAMs), and Granulocytic MDSCs. The different populations, and panels for detecting MDSCs, are described in Cancer Discovery 2011; 1:54-67. Tumors may vary in their myeloid cell composition."}, "Human hep viability": {"assay": "Human hep viability", "format": "cell-based", "conditions": "human hepatocytes"}, "[2]": {"system": "spleen T cell proliferation", "assay": "Ex vivo T-cell proliferation assay with tumor-derived cells", "format": "cell-based, mouse"}, "[3]": {"system": "LPS induced neutrophil influx in BALF", "assay": "LPS-induced neutrophilia, oral administration", "format": "in vivo", "conditions": "rat, p.o., 4 hours post-LPS challenge", "from_the_text": "This study also includes assessment of the exposure to the compounds in plasma and lung tissues."}, "[4]": {"system": "pAKT S473 in T cells and monocytes", "assay": "Ex vivo whole blood CXCL12 stimulation of phospho-AKT, LLC-bearing mice", "format": "in vivo, mouse", "conditions": "12 days QD PO, 2 h post dose", "procedure": "C57 BL/6 Albino mice were implanted with 1×10^6 cells in a SC injection in the hind flank. The cell implant material was generated from brei that was passaged from mouse to mouse. Treatment started when tumors were between 160-180 mm^3. Mice were dosed for 12 days, QD, PO with vehicle, 15, 7.5 or 3 mg/kg. On day 12 mice were dosed and terminal blood was collected 2 h post dose by cardiac stick collection. Blood was placed in EDTA K2 collection tube and stored at room temp for PD analysis.\nBlood from each animal was aliquotted into 2 plates and warmed to 37° C. degrees. PBS was added to one plate as an unstimulated control. Murine CXCL12/SDF-1 was added to the second plate to a final concentration of 800 ng/mL and plate was returned to the 37° C. degree block. After 2 minutes of incubation, blood was lysed and fixed using paraformaldehyde. Samples were washed and frozen until flow cytometric analysis. T cells were gated using an antibody to CD3 and monocytes were gated as LY6G^− LY6C^high. Intracellular pAKT S473 was measured and percent positive was used for graphing."}, "Cyps": {"system": "Cyps", "assay": "Time dependent Cyp inhibition", "format": "in vitro ADME"}, "[5]": {"system": "RANKL driven differentiation of osteoclasts from bone marrow macrophages", "assay": "Osteoclast differentiation assay (TRAP)", "format": "cell-based, mouse", "conditions": "TRAP positive cells, FIG. 17", "procedure": "Long bones from young C57B6 mice were harvested and bone marrow was extruded by gentle lavage of the bone marrow cavities with a 28 gage needle. The cells were screened, and red blood cells were removed using red blood cell lysis buffer (Sigma). Bone marrow cells were differentiated to macrophages using 20 ng/ml mouse MCSF (RnD systems) for 3 days (RPMI and 20% FCS). The cell were washed with PBS, and lifted with Accutase for 10 minutes.\nThe bone marrow macrophage cells were plated at 150,000 cells per well in a 96 well plate in a MEM 10% FCS. […] Then 25 ng/ml mouse MCSF with or without mouse RANKL (100 ng/ml, RnD systems) was added for 6 days. Media changes (including drugs) were done at day 3 and day 5. The cells were then fixed and stained with the tartrate resistant acid phosphatase (TRAP) assay kit from Sigma according to the manufactures instructions. TRAP positive cells (osteoclasts and cells undergoing an osteoclastic differentiation) in a transect of the triplicate wells (at 20× […]) were manually counted by going through the widest part of each well."}, "MC38 tumors": {"system": "MC38 tumors", "assay": "MC38 colon cancer model", "format": "in vivo, mouse", "procedure": "In this model, a syngeneic colon cancer cell line is run subcutaneously. The experimental setup was as follows.\nFemale CR C57BL/6 mice were set up with 1×10^6 MC38 tumor cells in 0% Matrigel sc in flank. The cell injection volume was 0.05 ml per mouse. When tumors reached an average size of […], a pair match was made and treatment began. The tumor was measured by caliper biweekly.\nThe dosing volume was 5 mL/kg.\nFor all animals, blood was collected by terminal cardiac puncture under isoflurane anesthesia. The blood was processed for plasma. In addition, tumor samples were collected.\nAt study end, tumors were isolated, fixed in 10% neutral buffered formalin and embedded in paraffin for histologic analysis. Tumor sections from both vehicle and Compound BB monotherapy were cut for immunohistochemical analysis. T-cells within the tumor sections were identified utilizing a CD3-specific antibody via automated immunohistochemistry equipment (Ventana). Once stained, slides were digitalized via Aperio slide scanning equipment. Next, stained tumor sections were quantified via Definians software to assess the percentage of CD3 positive cells within each tumor. […] A trendline was added to the vehicle and Compound BB monotherapy graphs."}, "4T1 breast cancer": {"system": "4T1 breast cancer", "assay": "Subcutaneous 4T1 breast cancer model", "format": "in vivo", "conditions": "co-administration with docetaxel, paclitaxel, or 5-FU"}, "[6]": {"assay": "Stability in simulated gastric fluid", "format": "physicochemical", "from_the_text": "The phyiscochemical properties of Compound BB are drug-like, and suitable for use of the compound as a drug."}, "Lewis Lung Carcinoma": {"system": "Lewis Lung Carcinoma", "assay": "Lewis Lung Carcinoma model / LLC tumor brei model", "format": "in vivo, mouse"}},
  "note": "pIC50: −log10 of the molar value.",
  "data": [
    {"smiles": "C[C@H](NC(=O)c1c(N)nn2cccnc12)c1cc2cccc(C#Cc3cnn(C)c3)c2c(=O)n1-c1ccccc1", "note": "[Compound BB]", "values": [
      {"measurement": "Tumor volume, GL-261 syngeneic glioma model", "setting": "GL261-Luc tumors", "value": "reduced tumor volume"},
      {"measurement": "Infiltrating TAMs", "setting": "[1]; FIG. 38A", "value": "the number of infiltrating TAMs was decreased"},
      {"measurement": "CD206 staining (M2 polarized suppressive macrophages)", "setting": "[1]; FIG. 39", "value": "CD206 staining was reduced"},
      {"measurement": "pIC50", "setting": "Human hep viability", "value": "4.60 to 5.00"},
      {"measurement": "immune suppressive environment", "setting": "[2]", "value": "reduces"},
      {"measurement": "Neutrophil in bronchoalveolar lavage fluid (BALF)", "setting": "[3]", "value": "reduced neutrophil"},
      {"measurement": "Ex vivo whole blood CXCL12 stimulation of phospho-AKT in T cells", "setting": "[4]; FIG. 58", "value": "inhibits the ex vivo whole blood stimulation of phosphor-AKT in T cells"},
      {"measurement": "Ex vivo whole blood CXCL12 stimulation of phospho-AKT in monocytes", "setting": "[4]; FIG. 59", "value": "inhibits the ex vivo whole blood stimulation of phosphor-AKT in monocytes"},
      {"measurement": "Time dep Cyp Inhibition @ 10 uM", "setting": "Cyps", "value": "Neg"},
      {"measurement": "RANKL driven differentiation of osteoclasts from bone marrow macrophages", "setting": "[5]", "value": "prevents RANKL driven differentiation of osteoclasts"},
      {"measurement": "Intratumoral CD3+ T cells", "setting": "MC38 tumors; MC38 tumors vs vehicle, FIG. 30", "value": "significantly more intratumoral CD3+ T cells"},
      {"measurement": "Tumor growth, MC38 colon cancer model", "setting": "MC38 tumors; monotherapy, FIG. 29A", "value": "significantly inhibited tumor growth"},
      {"measurement": "tumor growth", "setting": "4T1 breast cancer", "value": "further reduction in tumor growth"},
      {"measurement": "Stability in 38° simulated gastric fluid", "setting": "[6]", "value": "> 4", "unit": "h"},
      {"measurement": "CD206+ M2 polarized suppressive macrophages", "setting": "Lewis Lung Carcinoma", "value": "reduces"},
      {"measurement": "TAMs", "setting": "Lewis Lung Carcinoma", "value": "decreased"}
    ]}
  ]
}
